In PMC9575645 (Signal Transduction and Targeted Therapy, 2022):

Experiments:
[1] = system: lipid droplets (LDs); test: BODIPY lipid droplet immunofluorescence in IAV-infected A549 cells; type: cell-based, human; details: MOI = 1 FFU
Experimental: To characterize the dynamics of LD formation, apoptotic and necroptotic cells, and virus infectivity, an IFA was performed with the […], MDCK, Caco-2, Vero E6, MA104, MARC-145, LLC-PK, and HRT-18G cells, infected with or without each virus, and treated with vehicles or chemicals at the different time points (Table S3), or transfected with siRNA or scrambled siRNA as described above.^ 16^,27^,28 Briefly, cells were prepared in 8-well chamber slides infected with IAV, SARS-CoV-2, BCoV, PEDV, RVA, PRRSV, or PSaV at an MOI of 1 (IAV), or MOI of 0.1 (SARS-CoV-2, BCoV, PEDV, RVA, PRRSV, or PSaV) and treated with or without chemicals. […] Subsequently, cells were washed thrice with PBS (pH 7.4) and mounted with SlowFade Gold antifade reagent containing 1 × DAPI solution (Molecular Probes) for nucleus staining, observed with a LSM 800 confocal microscope, and analysed using Zen Blue Software 2.6 (Carl Zeiss; Jena, Germany).
The number and size of intracellular LDs were measured as described previously.^28 Briefly, four images were taken of each sample and converted into a pixel unit, and the data were processed and quantified using Adobe Photoshop CS6. […] The results were expressed as relative values, where the average number and size of pixels of positive color in virus-infected groups were normalized to those of the mock-treated, mock-infected control.

[2] = system: Species A Rotavirus (NCDV); details: for IC50: Species A Rotavirus (NCDV), MA104 cells
[3] = system: LD lipolysis (FFA and glycerol release); test: Intracellular FFA and glycerol quantification in IAV-infected A549 cells; type: cell-based, human; details: 20 µM at 12 hpi, vs vehicle-treated control
Experimental: (§1) Cells were grown in 6- or 12-well plates or 8-well chamber slides to the desired confluency and then washed twice with phosphate-buffered saline (PBS, pH 7.4). They were then mock-inoculated with medium only or virus-inoculated with various multiplicities of infection (MOI): MOI of 0.01 or 1 FFU/cell for IAV, and MOI of 0.01 or 0.1 FFU/cell for SARS-CoV-2, BCoV, PEDV, PRRSV, and PSaV. Thereafter, each inoculum was absorbed for 1 h, and the cells were washed twice with PBS (pH 7.4). As shown in Supplementary Table 4, further treatments and incubations varied dependent on the virus species used. […]
(§2) To determine intracellular levels of free fatty acids, the different cultured cells infected with or without the seven target RNA viruses, or treated with or without different concentrations of chemicals, and the lung samples from experimental mice and hamsters were prepared as described above. The amount of intracellular free fatty acid was determined using a quantification kit from BioVision according to the manufacturer’s recommendations.^31 Briefly, 5x10^6 cells or 100 mg of lung tissue were mixed with 500 μL of chloroform-Triton X-100 (1% Triton X-100 in pure chloroform) with vortexing at five-minute intervals for 20 min at 20°C. […]

[4] = system: Porcine respiratory reproductive syndrome virus (LMY); details: for IC50: PRRSV (LMY), MARC-145 cells
[5] = system: proinflammatory cytokines; test: Proinflammatory cytokines in SARS-CoV-2-infected Vero E6 cells (RT-qPCR, ELISA); type: cell-based, African green monkey; details: 20 μM
[6] = system: LD lipolysis (FFA and glycerol release); test: Intracellular FFA and glycerol quantification in SARS-CoV-2-infected Vero E6 cells; type: cell-based, African green monkey; details: SARS-CoV-2-infected cells; 20 µM at 18 hpi; vs vehicle-treated control
Experimental: as §1, §2

Structure (SMILES)	intracellular LDs (BODIPY) [1]	SI (CC50/IC50) [2]	IC50 [2] [µM]	levels of intracellular FFAs and glycerol [3]	SI (CC50/IC50) [4]	IC50 [4] [µM]	levels of TNF-α, IL-6, and MCP-1 [5]	levels of intracellular FFAs and glycerol [6]
CN(C)C(=O)Nc1cccc(-c2ccc(N(C)C)cc2)c1 [Atglistatin]	Retention of LDs	32	6.7 ± 0.49	significantly reduced	84	2.53 ± 0.18	markedly reduced	significantly reduced
COc1nn(-c2ccc(NC(=O)OCc3ccccc3)c(C)c2)c(=O)o1 [CAY10499]	Retention of LDs	5	20.9 ± 5.06	significantly reduced	24	4.21 ± 0.55	markedly reduced	significantly reduced
